{
  "source": "ChEMBL document CHEMBL3045835",
  "about": "“Comparative study of conventional and microwave-assisted synthesis of some Schiff bases and their potential as antimicrobial agents” (2012)",
  "assay_type_in_all_cases": "functional",
  "key": {"Pseudomonas aeruginosa [1]": {"tested_on": "Pseudomonas aeruginosa", "assay": "Antibacterial activity against Pseudomonas aeruginosa MTCC 424 after 24 hr by broth dilution method", "conditions": "MTCC 424, 24 h"}, "Micrococcus luteus": {"tested_on": "Micrococcus luteus", "assay": "Antibacterial activity against Micrococcus luteus MTCC 1538 after 24 hr by broth dilution method", "conditions": "MTCC 1538, 24 h"}, "Bacillus pumilus": {"tested_on": "Bacillus pumilus", "assay": "Antibacterial activity against Bacillus pumilus MTCC 1456 after 24 hr by broth dilution method", "conditions": "MTCC 1456, 24 h"}, "Staphylococcus aureus": {"tested_on": "Staphylococcus aureus", "assay": "Antibacterial activity against Staphylococcus aureus MTCC 1430 after 24 hr by broth dilution method", "conditions": "MTCC 1430, 24 h"}, "Bacillus subtilis": {"tested_on": "Bacillus subtilis", "assay": "Antibacterial activity against Bacillus subtilis MTCC 441 after 24 hr by broth dilution method", "conditions": "MTCC 441, 24 h"}, "Pseudomonas fluorescens [2]": {"tested_on": "Pseudomonas fluorescens", "assay": "Antibacterial activity against Pseudomonas fluorescens MTCC 2421 at 1000 ug/ml after 18 hr by cup-plate method", "conditions": "MTCC 2421, 18 h, read-out: DIZ"}, "Pseudomonas fluorescens [3]": {"tested_on": "Pseudomonas fluorescens", "assay": "Antibacterial activity against Pseudomonas fluorescens MTCC 2421 at 1500 ug/ml after 18 hr by cup-plate method", "conditions": "MTCC 2421, 18 h, read-out: DIZ"}, "Pseudomonas fluorescens [4]": {"tested_on": "Pseudomonas fluorescens", "assay": "Antibacterial activity against Pseudomonas fluorescens MTCC 2421 at 500 ug/ml after 18 hr by cup-plate method", "conditions": "MTCC 2421, 18 h, read-out: DIZ"}, "Pseudomonas fluorescens [5]": {"tested_on": "Pseudomonas fluorescens", "assay": "Antibacterial activity against Pseudomonas fluorescens MTCC 2421 at 200 ug/ml after 18 hr by cup-plate method", "conditions": "MTCC 2421, 18 h, read-out: DIZ"}, "Penicillium chrysogenum [6]": {"tested_on": "Penicillium chrysogenum", "assay": "Antifungal activity against Penicillium chrysogenum MTCC 161 at 1500 ug/ml after 18 hr by cup-plate method", "conditions": "MTCC 161, 18 h, read-out: DIZ"}, "Penicillium chrysogenum [7]": {"tested_on": "Penicillium chrysogenum", "assay": "Antifungal activity against Penicillium chrysogenum MTCC 161 at 1000 ug/ml after 18 hr by cup-plate method", "conditions": "MTCC 161, 18 h, read-out: DIZ"}, "Penicillium chrysogenum [8]": {"tested_on": "Penicillium chrysogenum", "assay": "Antifungal activity against Penicillium chrysogenum MTCC 161 at 500 ug/ml after 18 hr by cup-plate method", "conditions": "MTCC 161, 18 h, read-out: DIZ"}, "Penicillium chrysogenum [9]": {"tested_on": "Penicillium chrysogenum", "assay": "Antifungal activity against Penicillium chrysogenum MTCC 161 at 200 ug/ml after 18 hr by cup-plate method", "conditions": "MTCC 161, 18 h, read-out: DIZ"}, "Penicillium chrysogenum [10]": {"tested_on": "Penicillium chrysogenum", "assay": "Antifungal activity against Penicillium chrysogenum MTCC 161 at 100 ug/ml after 18 hr by cup-plate method", "conditions": "MTCC 161, 18 h, read-out: DIZ"}, "Aspergillus niger [11]": {"tested_on": "Aspergillus niger", "assay": "Antifungal activity against Aspergillus niger MTCC 2546 at 1000 ug/ml after 18 hr by cup-plate method", "conditions": "MTCC 2546, 18 h, read-out: DIZ"}, "Aspergillus niger [12]": {"tested_on": "Aspergillus niger", "assay": "Antifungal activity against Aspergillus niger MTCC 2546 at 1500 ug/ml after 18 hr by cup-plate method", "conditions": "MTCC 2546, 18 h, read-out: DIZ"}, "Aspergillus niger [13]": {"tested_on": "Aspergillus niger", "assay": "Antifungal activity against Aspergillus niger MTCC 2546 at 500 ug/ml after 18 hr by cup-plate method", "conditions": "MTCC 2546, 18 h, read-out: DIZ"}, "Aspergillus niger [14]": {"tested_on": "Aspergillus niger", "assay": "Antifungal activity against Aspergillus niger MTCC 2546 at 100 ug/ml after 18 hr by cup-plate method", "conditions": "MTCC 2546, 18 h, read-out: DIZ"}, "Aspergillus niger [15]": {"tested_on": "Aspergillus niger", "assay": "Antifungal activity against Aspergillus niger MTCC 2546 at 200 ug/ml after 18 hr by cup-plate method", "conditions": "MTCC 2546, 18 h, read-out: DIZ"}, "Escherichia coli [16]": {"tested_on": "Escherichia coli", "assay": "Antibacterial activity against Escherichia coli MTCC 1573 at 1500 ug/ml after 18 hr by cup-plate method", "conditions": "MTCC 1573, 18 h, read-out: DIZ"}, "Escherichia coli [17]": {"tested_on": "Escherichia coli", "assay": "Antibacterial activity against Escherichia coli MTCC 1573 at 500 ug/ml after 18 hr by cup-plate method", "conditions": "MTCC 1573, 18 h, read-out: DIZ"}, "Escherichia coli [18]": {"tested_on": "Escherichia coli", "assay": "Antibacterial activity against Escherichia coli MTCC 1573 at 1000 ug/ml after 18 hr by cup-plate method", "conditions": "MTCC 1573, 18 h, read-out: DIZ"}, "Escherichia coli [19]": {"tested_on": "Escherichia coli", "assay": "Antibacterial activity against Escherichia coli MTCC 1573 at 200 ug/ml after 18 hr by cup-plate method", "conditions": "MTCC 1573, 18 h, read-out: DIZ"}, "Escherichia coli [20]": {"tested_on": "Escherichia coli", "assay": "Antibacterial activity against Escherichia coli MTCC 1573 at 100 ug/ml after 18 hr by cup-plate method", "conditions": "MTCC 1573, 18 h, read-out: DIZ"}, "Pseudomonas fluorescens [21]": {"tested_on": "Pseudomonas fluorescens", "assay": "Antibacterial activity against Pseudomonas fluorescens MTCC 2421 at 100 ug/ml after 18 hr by cup-plate method", "conditions": "MTCC 2421, 18 h, read-out: DIZ"}, "Pseudomonas aeruginosa [22]": {"tested_on": "Pseudomonas aeruginosa", "assay": "Antibacterial activity against Pseudomonas aeruginosa MTCC 424 at 1500 ug/ml after 18 hr by cup-plate method", "conditions": "MTCC 424, 18 h, read-out: DIZ"}, "Pseudomonas aeruginosa [23]": {"tested_on": "Pseudomonas aeruginosa", "assay": "Antibacterial activity against Pseudomonas aeruginosa MTCC 424 at 1000 ug/ml after 18 hr by cup-plate method", "conditions": "MTCC 424, 18 h, read-out: DIZ"}},
  "data": [
    {"smiles": "Cc1cccnc1/N=C/c1cccc2ccccc12", "values": [
      {"measurement": "MIC", "setting": "Pseudomonas aeruginosa [1]", "result": 300, "unit": "µg/mL"},
      {"measurement": "MIC", "setting": "Micrococcus luteus", "result": 200, "unit": "µg/mL"},
      {"measurement": "MIC", "setting": "Bacillus pumilus", "result": 200, "unit": "µg/mL"},
      {"measurement": "MIC", "setting": "Staphylococcus aureus", "result": 400, "unit": "µg/mL"},
      {"measurement": "MIC", "setting": "Bacillus subtilis", "result": 50, "unit": "µg/mL"},
      {"measurement": "zone of inhibition at 1000 µg/mL", "setting": "Pseudomonas fluorescens [2]", "result": 23, "unit": "mm"},
      {"measurement": "zone of inhibition at 1500 µg/mL", "setting": "Pseudomonas fluorescens [3]", "result": 24, "unit": "mm"},
      {"measurement": "zone of inhibition at 500 µg/mL", "setting": "Pseudomonas fluorescens [4]", "result": 22, "unit": "mm"},
      {"measurement": "zone of inhibition at 200 µg/mL", "setting": "Pseudomonas fluorescens [5]", "result": 20, "unit": "mm"},
      {"measurement": "zone of inhibition at 1500 µg/mL", "setting": "Penicillium chrysogenum [6]", "result": 18, "unit": "mm"},
      {"measurement": "zone of inhibition at 1000 µg/mL", "setting": "Penicillium chrysogenum [7]", "result": 17, "unit": "mm"},
      {"measurement": "zone of inhibition at 500 µg/mL", "setting": "Penicillium chrysogenum [8]", "result": 15, "unit": "mm"},
      {"measurement": "zone of inhibition at 200 µg/mL", "setting": "Penicillium chrysogenum [9]", "result": 13, "unit": "mm"},
      {"measurement": "zone of inhibition at 100 µg/mL", "setting": "Penicillium chrysogenum [10]", "result": 11, "unit": "mm"},
      {"measurement": "zone of inhibition at 1000 µg/mL", "setting": "Aspergillus niger [11]", "result": 20, "unit": "mm"},
      {"measurement": "zone of inhibition at 1500 µg/mL", "setting": "Aspergillus niger [12]", "result": 21, "unit": "mm"},
      {"measurement": "zone of inhibition at 500 µg/mL", "setting": "Aspergillus niger [13]", "result": 19, "unit": "mm"},
      {"measurement": "zone of inhibition at 100 µg/mL", "setting": "Aspergillus niger [14]", "result": 13, "unit": "mm"},
      {"measurement": "zone of inhibition at 200 µg/mL", "setting": "Aspergillus niger [15]", "result": 16, "unit": "mm"},
      {"measurement": "zone of inhibition at 1500 µg/mL", "setting": "Escherichia coli [16]", "result": 19, "unit": "mm"},
      {"measurement": "zone of inhibition at 500 µg/mL", "setting": "Escherichia coli [17]", "result": 15, "unit": "mm"},
      {"measurement": "zone of inhibition at 1000 µg/mL", "setting": "Escherichia coli [18]", "result": 16, "unit": "mm"},
      {"measurement": "zone of inhibition at 200 µg/mL", "setting": "Escherichia coli [19]", "result": 14, "unit": "mm"},
      {"measurement": "zone of inhibition at 100 µg/mL", "setting": "Escherichia coli [20]", "result": 13, "unit": "mm"},
      {"measurement": "zone of inhibition at 100 µg/mL", "setting": "Pseudomonas fluorescens [21]", "result": 17, "unit": "mm"},
      {"measurement": "zone of inhibition at 1500 µg/mL", "setting": "Pseudomonas aeruginosa [22]", "result": 18, "unit": "mm"},
      {"measurement": "zone of inhibition at 1000 µg/mL", "setting": "Pseudomonas aeruginosa [23]", "result": 16, "unit": "mm"}
    ]}
  ]
}
